“Also recorded” adds a separate entry of the source. Ends that are not written are not given here.
Legend:
Gn11 cells [1] = experiment: MTT assay, Gn11 cells; format: cell-based, mouse; settings: 48 hours
Description: (§1) Gn11 immortalized neurons were cultured as previously reported (Tellam et al., 1998) Direct cAMP measurements were performed with the nonacetylated version of a commercial kit (Assay Designs, Ann Arbor, Mich.). After starved by serum-free DMEM for 1 hr and replaced with fresh DMEM without serum, cells were treated for 15 min with TCAP, urocortin or vehicle±CRFR1 antagonist PD171729 in the continued presence of forskolin (1_M) and IBMX (100_M. Protein assays: Total protein was determined using the BCA protein assay method (Pierce Co). MTT Assays: Gn11 cells were seeded into 96-well plates and cultured in full serum DMEM until the cells were 30% confluent. Vehicle, 1 nM, 10 nM or 100 nM TCAP-1 were added into each group (n=8). (FIG. 25A) The MTT assay (Sigma Chemicals) was performed at 0, 6, 12, 24 and 48 hours. Flow Cytometry: DNA content of the Gn11 cells was quantified by staining with propridium iodide and analyzed on a FACSCAN flow cytometer (Beckman Instruments).

Gn11 cells [2] = experiment: Total protein, BCA protein assay, Gn11 cells; format: cell-based, mouse; settings: 1, 10 and 100 nM, after 120 minutes
Description: as §1

Gn11 cells [3] = experiment: Flow cytometry DNA content analysis, Gn11 cells; format: cell-based, mouse; settings: after 24 hours
Description: as §1

N38 hypothalamic cells = experiment: Microarray gene expression in N38 hypothalamic cells; format: cell-based, mouse; settings: 1 nM
Description: Total RNA (TRNA) was isolated from 3 independent treated and untreated N38 hypothalamic cell cultures, pooled (to reduce the noise), utilizing Trizol Reagent (GIBCO/BRL) following the manufacturer's protocol. The quality of total RNA was assessed using an Agilent 2100 Bioanalyzer (version A.02.01S1232, Agilent Technologies). Only RNA with the OD ratio of 1.99-2.0 at 260/280 was used.
Hybridizations were performed on the Mouse MU74Av2 GeneChip Set (Affymetrix, Santa Clara, Calif.). Samples were prepared for hybridization according to Affymetrix instructions. Briefly, a primer encoding the T7 RNA polymerase promoter linked to oligo-dT17 was used to prime double-stranded cDNA synthesis from each mRNA sample using Superscript II RNase H^− reverse transcriptase (Life Technologies, Rockville, Md.). Each purified (Qiaquick kit, Qiagen) double-stranded cDNA was in vitro transcribed using T7 RNA polymerase (T7 kit; Enzo), incorporating biotin-UTP and biotin-CTP (Enzo Biochemicals, New York, N.Y.) into the cRNAs, followed by purification using RNEasy (Qiagen) and quantitated by measuring absorption at 260 nm/280 nm. Samples were fragmented and hybridized to the Chip for 16 h at 45° C. and scanned (GeneArray scanner, Affymetrix). MicroArray Suite Version 5 (MASv5; Affymetrix) was used to scale intensities across the Genechips to 150 fluorescence units, and to determine expression values for each gene on the chip. The expression value for each gene was determined by calculating the average of differences (perfect match intensity minus mismatch intensity) of the probe pairs in use for the gene.
Gene analysis software: Data analysis was performed using two independent softwares, GeneChip and GeneSpring. To identify differentially expressed transcripts, pairwise comparison analyses were carried out with MicroArray Suite Version 5 MicroArray Suite Version 5 (MASv5; Affymetrix). This approach, which is based on the Mann-Whitney pairwise comparison test, allows the ranking of results by concordance, as well as the calculation of significance (P value) of each identified change in gene expression. Statistically significant genes (P<0.05) were selected for further analysis. Moreover, statistically significant changes in mean expression values were determined by importing the data from MASv5 into GeneSpring 5 (Silicon Genetics, Redwood City, Calif.). A stepwise process was followed, first with normalizations. A per-chip followed by a per-gene normalization in order to facilitate direct comparison of biological differences. Next, a second method of filter using Affymetrix data and p value with cut-off of P<0.005 generated 4,841 genes which were used for subsequent analysis utilizing Hierarchical Clustering, k-means, Self Organization Map (SOM) utilizing GeneSpring 5.0.
RNAs isolated from treated and untreated cells were analyzed on oligonucleotide arrays representing 12,884 mouse genes (Affymetrix, http://www.affymetrix.com). Standard filtering (p<0.005) and hierarchical clustering algorithm (average linage method: GeneSpring software—Silicon Genetics) identified significant changes in the expression of 4, 841/12,885 genes with 166 genes showing 1.5 fold down-regulation and 35 genes up-regulation in the TCAP-1-treated cells compared to the untreated cells. […] A G-protein coupled receptor-related signal transduction pathway is indicated by the regulation of genes, CREM, AKAP8, AKAP95 and PDE6A. […] The upregulation in inducible nitric oxide (INOS), a intracellular voltage-gated chloride channel (CLCN3) and the serotonin transporter (SLC6A4) may reflect the down stream actions of cAMP-mediated signal cascade and indicates the potential for TCAP to be involved in neuronal signaling systems. A role in interneuron communication by TCAP is also indicated by the modulation of genes associated with the regulation of vesicle trafficking. […]

rats = experiment: Acoustic startle response after TCAP-1 injection; format: in vivo, rat
From the text: Male Wistar rats (250-275 g), were surgically implanted with cannulae (23 gauge) bilaterally into the basolateral nuclei of the amydala (AP −2.8, ML +/−5.0, DV −7.2 mm, from bregma). One week later, the animals were habituated to the acoustic startle reflex (ASR) chambers (MED Associates, grid rod cage measuring 7.5″×3.6″×4.2″), consisting of 25 trials of 120 dB stimuli presented randomly with an inter-stimulus interval of 55-65 seconds, duration of 30 msecs and frequency of 5000 Hz. The same stimulus conditions were used for test days, which consisted of a 25 trial baseline, injection with mouse TCAP-1 (with amidation signal)[SEQ. ID. NO. 40] or vehicle (0.25 μl/side, flow rate 0.5 μl/min), and testing for a further 60 trials post-drug. Each rat received vehicle treatment on the first test day then TCAP-1 (e.g. mouse TCAP-1) in a random and counter balanced fashion in subsequent test days, spaced 48 h apart. On the final test day, all rats again received vehicle treatment. Following histological analysis of cannulae placements, the data of eight rats was retained for statistical analysis.
From the data, rats were divided into high and low anxiety groups depending upon their treatment/baseline ratio for the vehicle. Animals that scored less than one were considered low anxiety, those scoring more than one were considered high anxiety. There were four animals in each anxiety group.

Gn11 cells [4] = experiment: cAMP accumulation in Gn11 immortalized neurons (Example 12); format: cell-based, mouse; settings: for cAMP accumulation at 1 nM (in words): FIG. 25A/B
Description: as §1

Gn11 cells [5] = experiment: cGMP assay in Gn11 cells (Example 7, I); format: cell-based, mouse; settings: 10^-6 M
Description: (§2) Medium and peptide was removed and the cells were lysed using 350 uL of a 0.1 M HCL 0.1% Triton X-100 solution. […] All reactions were done in triplicates. Wells were set up for blanks, non-specific binding, total activity (TA), zero binding, five standards, and 12 samples. […] The plate was allowed to shake overnight. The following morning, the wells were rinsed three times with a 10 times diluted wash buffer solution. 50 uL of conjugate was added to the TA wells and 200 uL of p-Npp substrate was added to each well. The plate was covered again and incubated at room temp for one hour. At this point, 50 uL of stop solution was added to all wells and the absorbance was read at 405 nm using a Spectramax spectrophotometer. Three levels of controls were utlized: A blank tube which provides a measure of any reactivity between p-Npp substrate and IgG coated wells.; TA: measure of activity of alkaline phosphotase in conjugate, if any; NSB: measure of binding of conjugate to plate or to antibody; Bo: measure of binding conjugate to antibody (no sample and conjugate competition).

Gn11 cells [6] = experiment: cAMP assay in Gn11 cells (Example 7, I); format: cell-based, mouse; settings: 10^-6 M
Description: as §2

[7] = 16 hours, relative to untreated control
[8] = treated compared to untreated cells
[9] = micro injected into the basolateral amygdala, 3, 30, 300 pmoles

TCAP-1: synthetic mouse teneurin-1 C-terminal associated peptide, SEQ. ID. NO: 37 or 38, with amidation signal (QQLLGTGRVQGYDGYFVLSVEQYLELSDSANNIHFMRQSEIGRR-NH2)
MTT activity (mitochondrial activity) at 1 nM (Gn11 cells [1]; 1 nM): significant (p<0.05) increase; also recorded: increased MTT activity | MTT activity (mitochondrial activity) at 100 nM (Gn11 cells [1]; 100 nM): decrease; also recorded: decreased (p<0.05) MTT activity | total protein concentration (Gn11 cells [2]): significant increase; also recorded: stimulated protein synthesis | incidence of G1 phase at 1 nM (Gn11 cells [3]; 1 nM): reduced (p<0.05) the incidence of G1 phase | incidence of G1 phase at 100 nM (Gn11 cells [3]; 100 nM): increased (p<0.05) G1 phase | Fold change AKAP8 (A kinase anchor protein 8) (N38 hypothalamic cells; [7]): 1.58 fold | Fold change AKAP95 (A kinase anchor protein 95) (N38 hypothalamic cells; [7]): 0.60 fold | Fold change ALK3 (Bone morphogenic protein receptor) (N38 hypothalamic cells; [7]): 0.60 fold | Fold change AP4S1 (Adaptor related protein complex) (N38 hypothalamic cells; [7]): 1.52 fold | Fold change ARF1 (ADP ribosylation factor 1) (N38 hypothalamic cells; [7]): 0.63 fold | Fold change BARK1 (β adrenergic receptor kinase 1) (N38 hypothalamic cells; [7]): 0.61 fold | Fold change BMP4 (Bone morphogenic protein-4) (N38 hypothalamic cells; [7]): 0.52 fold | Fold change CAII (Casein kinase II) (N38 hypothalamic cells; [7]): 0.61 fold | Fold change CAMIII (Calmodulin III) (N38 hypothalamic cells; [7]): 0.53 fold | Fold change CD95 (Fas antigen) (N38 hypothalamic cells; [7]): 0.61 fold | Fold change CLCN3 (Chloride channel protein 3) (N38 hypothalamic cells; [7]): 1.66 fold | Fold change CLM2-B (Cytohesin-2) (N38 hypothalamic cells; [7]): 0.63 fold | Fold change CRD-BP (CRD-binding protein) (N38 hypothalamic cells; [7]): 0.59 fold | Fold change CREMβ1 (cAMP-responsive element modulator) (N38 hypothalamic cells; [7]): 1.61 fold | Fold change DIP1/2 (DAB2 interacting protein) (N38 hypothalamic cells; [7]): 0.68 fold | Fold change ERK1 (Mitogen activated protein kinase) (N38 hypothalamic cells; [7]): 0.64 fold | Fold change FNBX (Ferredoxin-NADP reductase) (N38 hypothalamic cells; [7]): 1.61 fold | Fold change GAS5 (Growth arrest specific transcript) (N38 hypothalamic cells; [7]): 0.46 fold | Fold change GBP3 (Guanylate binding protein) (N38 hypothalamic cells; [7]): 0.63 fold | Fold change GDAP10 (Ganglioside induced diff. protein 10) (N38 hypothalamic cells; [7]): 1.62 fold | Fold change GP25L2 (gp25L brings cargo forward from ER) (N38 hypothalamic cells; [7]): 1.53 fold | Fold change GR (Glucocorticoid receptor) (N38 hypothalamic cells; [7]): 0.66 fold | Fold change IL1R (Interleukin 1 receptor) (N38 hypothalamic cells; [7]): 0.60 fold | Fold change INI1B (Integrase interacting protein 1B) (N38 hypothalamic cells; [7]): 0.48 fold | Fold change INOS (Inducible nitric oxide synthetase) (N38 hypothalamic cells; [7]): 1.50 fold | Fold change MKI67 (Cell cycle protein regulator) (N38 hypothalamic cells; [7]): 1.70 fold | Fold change MMP1 (Matrix metalloproteinase 1) (N38 hypothalamic cells; [7]): 0.55 fold | Fold change MMP10 (Matrix metalloproteinase 10) (N38 hypothalamic cells; [7]): 0.59 fold | Fold change MOP3 (Circadian rhythm regulator) (N38 hypothalamic cells; [7]): 1.57 fold | Fold change P202 (202 interferon activatable protein) (N38 hypothalamic cells; [7]): 0.61 fold | Fold change P204 (Interferon activatable protein) (N38 hypothalamic cells; [7]): 1.85 fold | Fold change PCDHγ (protocadherin γ) (N38 hypothalamic cells; [7]): 0.42 fold | Fold change PDE6A (cGMP Phosphodiesterase α) (N38 hypothalamic cells; [7]): 1.68 fold | Fold change PPAN (Peter Pan homologue) (N38 hypothalamic cells; [7]): 0.62 fold | Fold change PTK7 (Receptor protein tyrosine kinase) (N38 hypothalamic cells; [7]): 1.53 fold | Fold change RAB10 (Ras oncogene homologue) (N38 hypothalamic cells; [7]): 1.62 fold | Fold change SDPR (Serum deprivation response protein) (N38 hypothalamic cells; [7]): 0.57 fold | Fold change SLC6A4 (Serotonin transporter) (N38 hypothalamic cells; [7]): 1.53 fold | Fold change SSG1 (Steroid sensitive gene 1) (N38 hypothalamic cells; [7]): 0.62 fold | Fold change ST7 (Suppressor of tumourigenicity) (N38 hypothalamic cells; [7]): 1.97 fold | Fold change TTF-1IP (TTF-1 interacting peptide) (N38 hypothalamic cells; [7]): 0.50 fold | Fold change YIPID (Rab-mediated membrane transport) (N38 hypothalamic cells; [7]): 1.88 fold | number of genes showing 1.5 fold down-regulation (N38 hypothalamic cells; [8]): 166 genes | number of genes showing up-regulation (N38 hypothalamic cells; [8]): 35 genes | acoustic startle response (rats; administration into the lateral ventricle or amygdala of rats): normalized the acoustic startle response | relation of effect on startle response to baseline startle response (rats; amygdala-injected, FIG. 24): inversely proportional to the baseline startle response | startle magnitude, animals with high treatment-to-baseline ratio (>1) (rats; [9]): significant (p<0.05) decrease | startle magnitude, animals with low treatment-to-baseline ratio (<1) (rats; [9]): significant (p, 0.05) and does dependent increase | increase of cAMP levels over the vehicle-treated cells (Gn11 cells [4]; 1 nM, 15 minutes): 45% | cAMP accumulation at 1 nM (in words) (Gn11 cells [4]; 1 nM): increased cAMP | cAMP accumulation at 10 nM (in words) (Gn11 cells [4]; 10 nM, FIG. 25A): without effect | decrease of cAMP accumulation from control cells (Gn11 cells [4]; 100 nM, 15 minutes): 40% | cAMP accumulation at 100 nM (in words) (Gn11 cells [4]; 100 nM, FIG. 25A): decreased (p<0.05) cAMP

rat urocortin: CRF family peptide used for the purpose of a positive control (DDPPLSIDLTFHLLRTLLELARTQSQRERAEQNRIIFDSV; ends and bridges not checked; UniProt P55090 81-120, looked up) [reference compound]
cGMP accumulation, % of the control cells (Gn11 cells [5]): 50.0±8.5% | cGMP accumulation (in words) (Gn11 cells [5]; FIG. 16B): significant (p<0.05) decrease | cAMP accumulation, % of the vehicle-treated cells (Gn11 cells [6]): 89.2±6.3%

mouse urocortin: CRF family peptide compared with mouse TCAP-1 in Gn11 cells (DDPPLSIDLTFHLLRTLLELARTQSQRERAEQNRIIFDSV; ends and bridges not checked) [reference compound]
cAMP accumulation at 1 nM (in words) (Gn11 cells [4]; 1 nM): increased cAMP accumulation

Source: patent publication US8088889B2, “Teneurin c-terminal associated peptides (TCAP) and uses thereof” (priority 2002, dated 2012)
